From ChEMBL document CHEMBL1201862, “PubChem BioAssay data set” (2004)
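Protocol summary: plate cells (96-well), add compound at 5 concentrations, incubate 48 h, interpolate endpoints linearly. GI50 marks 50% less growth.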 Active and inactive are the calls of the source. No stated cut-off is given here; in the data, active = GI50 up to about 1.1 µM and inactive = higher.

How the values were obtained:
Assay in all cases: NCI-60 cell line screen, 48 h
786-0 = tested on: 786-0
A498 = tested on: A498
A549 = tested on: A549
ACHN = tested on: ACHN
BT-549 = tested on: BT-549
CAKI-1 = tested on: CAKI-1
CCRF-CEM = tested on: CCRF-CEM
COLO 205 = tested on: COLO 205
DU-145 = tested on: DU-145
EKVX = tested on: EKVX
HCC 2998 = tested on: HCC 2998
HCT-116 = tested on: HCT-116
HCT-15 = tested on: HCT-15
HOP-62 = tested on: HOP-62
HOP-92 = tested on: HOP-92
HT-29 = tested on: HT-29
Hs-578T = tested on: Hs-578T
IGROV-1 = tested on: IGROV-1
K562 = tested on: K562
KM12 = tested on: KM12
LOX IMVI = tested on: LOX IMVI
M14 = tested on: M14
MCF7 = tested on: MCF7
MDA-MB-231 = tested on: MDA-MB-231
MDA-MB-435 = tested on: MDA-MB-435
MDA-N = tested on: MDA-N
MOLT-4 = tested on: MOLT-4
Malme-3M = tested on: Malme-3M
NCI-H226 = tested on: NCI-H226
NCI-H23 = tested on: NCI-H23
NCI-H460 = tested on: NCI-H460
NCI-H522 = tested on: NCI-H522
NCI/ADR-RES = tested on: NCI/ADR-RES
OVCAR-3 = tested on: OVCAR-3
OVCAR-4 = tested on: OVCAR-4
OVCAR-5 = tested on: OVCAR-5
OVCAR-8 = tested on: OVCAR-8
PC-3 = tested on: PC-3
RPMI-8226 = tested on: RPMI-8226
RXF 393 = tested on: RXF 393
SF-268 = tested on: SF-268
SF-295 = tested on: SF-295
SK-MEL-28 = tested on: SK-MEL-28
SK-MEL-2 = tested on: SK-MEL-2
SK-MEL-5 = tested on: SK-MEL-5
SK-OV-3 = tested on: SK-OV-3
SN12C = tested on: SN12C
SNB-19 = tested on: SNB-19
SNB-75 = tested on: SNB-75
SR = tested on: SR
SW-620 = tested on: SW-620
T47D = tested on: T47D
TK-10 = tested on: TK-10
U-251 = tested on: U-251
UACC-257 = tested on: UACC-257
UACC-62 = tested on: UACC-62
UO-31 = tested on: UO-31
SF-539 = tested on: SF-539

SMILES: CC(=O)OC(C#N)CC(C)(C)/[N+]([O-])=[N+](\[O-])C(C)(C)CC(C#N)OC(C)=O (centres undefined)
- GI50 (786-0): 10.6 µM (inactive)
- GI50 (A498): 44.6 µM (inactive)
- GI50 (A549): 30.1 µM (inactive)
- GI50 (ACHN): 12.1 µM (inactive)
- GI50 (BT-549): 14.8 µM (inactive)
- GI50 (CAKI-1): 15 µM (inactive)
- GI50 (CCRF-CEM): 1.73 µM (inactive)
- GI50 (COLO 205): 15.7 µM (inactive)
- GI50 (DU-145): 18 µM (inactive)
- GI50 (EKVX): 16.7 µM (inactive)
- GI50 (HCC 2998): 16.1 µM (inactive)
- GI50 (HCT-116): 6.7 µM (inactive)
- GI50 (HCT-15): 10.6 µM
- GI50 (HOP-62): 17.8 µM (inactive)
- GI50 (HOP-92): 12.3 µM (inactive)
- GI50 (HT-29): 18.4 µM (inactive)
- GI50 (Hs-578T): 17.3 µM (inactive)
- GI50 (IGROV-1): 10.8 µM (inactive)
- GI50 (K562): 3.77 µM (inactive)
- GI50 (KM12): 14.5 µM (inactive)
- GI50 (LOX IMVI): 11.1 µM (inactive)
- GI50 (M14): 14.4 µM (inactive)
- GI50 (MCF7): 8.83 µM (inactive)
- GI50 (MDA-MB-231): 14.7 µM (inactive)
- GI50 (MDA-MB-435): 16.1 µM (inactive)
- GI50 (MDA-N): 14.3 µM (inactive)
- GI50 (MOLT-4): 3.24 µM (inactive)
- GI50 (Malme-3M): 18.5 µM (inactive)
- GI50 (NCI-H226): 20.7 µM (inactive)
- GI50 (NCI-H23): 17 µM (inactive)
- GI50 (NCI-H460): 18 µM (inactive)
- GI50 (NCI-H522): 8.47 µM (inactive)
- GI50 (NCI/ADR-RES): 22.4 µM (inactive)
- GI50 (OVCAR-3): 16.6 µM (inactive)
- GI50 (OVCAR-4): 17.6 µM (inactive)
- GI50 (OVCAR-5): 23 µM (inactive)
- GI50 (OVCAR-8): 16.1 µM (inactive)
- GI50 (PC-3): 15.3 µM (inactive)
- GI50 (RPMI-8226): 15.8 µM (inactive)
- GI50 (RXF 393): 12.8 µM (inactive)
- GI50 (SF-268): 10.8 µM (inactive)
- GI50 (SF-295): 38.3 µM (inactive)
- GI50 (SK-MEL-28): 26 µM (inactive)
- GI50 (SK-MEL-2): 24.3 µM (inactive)
- GI50 (SK-MEL-5): 16.1 µM (inactive)
- GI50 (SK-OV-3): > 100 µM (inactive)
- GI50 (SN12C): 12.9 µM (inactive)
- GI50 (SNB-19): 23.1 µM (inactive)
- GI50 (SNB-75): 15.1 µM (inactive)
- GI50 (SR): 2.41 µM (inactive)
- GI50 (SW-620): 5.47 µM (inactive)
- GI50 (T47D): 15.5 µM (inactive)
- GI50 (TK-10): 15.9 µM (inactive)
- GI50 (U-251): 15.8 µM (inactive)
- GI50 (UACC-257): 16.9 µM (inactive)
- GI50 (UACC-62): 16.7 µM (inactive)
- GI50 (UO-31): 19.5 µM (inactive)

SMILES: Cc1ccc2nc3[nH]nc(N)c3nc2c1
- GI50 (786-0): > 100 µM (inactive)
- GI50 (A498): 85.3 µM (inactive)
- GI50 (A549): > 100 µM (inactive)
- GI50 (ACHN): 99.3 µM (inactive)
- GI50 (BT-549): 67 µM (inactive)
- GI50 (CAKI-1): 42.6 µM (inactive)
- GI50 (CCRF-CEM): > 100 µM (inactive)
- GI50 (COLO 205): > 100 µM (inactive)
- GI50 (DU-145): > 100 µM (inactive)
- GI50 (EKVX): 20.9 µM (inactive)
- GI50 (HCC 2998): > 100 µM (inactive)
- GI50 (HCT-116): > 100 µM (inactive)
- GI50 (HCT-15): 91 µM
- GI50 (HOP-62): > 100 µM (inactive)
- GI50 (HOP-92): 87.1 µM (inactive)
- GI50 (HT-29): > 100 µM (inactive)
- GI50 (Hs-578T): 89.3 µM (inactive)
- GI50 (IGROV-1): 37 µM (inactive)
- GI50 (KM12): 54.6 µM (inactive)
- GI50 (LOX IMVI): > 100 µM (inactive)
- GI50 (M14): > 100 µM (inactive)
- GI50 (MCF7): > 100 µM (inactive)
- GI50 (MDA-MB-231): > 100 µM (inactive)
- GI50 (MDA-MB-435): > 100 µM (inactive)
- GI50 (MDA-N): 51.1 µM (inactive)
- GI50 (MOLT-4): 68.5 µM (inactive)
- GI50 (Malme-3M): > 100 µM (inactive)
- GI50 (NCI-H226): 45.3 µM (inactive)
- GI50 (NCI-H23): > 100 µM (inactive)
- GI50 (NCI-H460): > 100 µM (inactive)
- GI50 (NCI-H522): > 100 µM (inactive)
- GI50 (NCI/ADR-RES): > 100 µM (inactive)
- GI50 (OVCAR-3): > 100 µM (inactive)
- GI50 (OVCAR-4): > 100 µM (inactive)
- GI50 (OVCAR-5): > 100 µM (inactive)
- GI50 (OVCAR-8): > 100 µM (inactive)
- GI50 (PC-3): 93.3 µM (inactive)
- GI50 (RPMI-8226): 72.6 µM (inactive)
- GI50 (RXF 393): 60 µM (inactive)
- GI50 (SF-268): > 100 µM (inactive)
- GI50 (SF-295): > 100 µM (inactive)
- GI50 (SF-539): > 100 µM (inactive)
- GI50 (SK-MEL-28): > 100 µM (inactive)
- GI50 (SK-MEL-2): > 100 µM (inactive)
- GI50 (SK-MEL-5): > 100 µM (inactive)
- GI50 (SK-OV-3): > 100 µM (inactive)
- GI50 (SN12C): > 100 µM (inactive)
- GI50 (SNB-19): > 100 µM (inactive)
- GI50 (SNB-75): 64 µM (inactive)
- GI50 (SR): > 100 µM (inactive)
- GI50 (SW-620): > 100 µM (inactive)
- GI50 (T47D): 65.3 µM (inactive)
- GI50 (TK-10): 28 µM (inactive)
- GI50 (U-251): > 100 µM (inactive)
- GI50 (UACC-257): > 100 µM (inactive)
- GI50 (UACC-62): 44.2 µM (inactive)
- GI50 (UO-31): 52 µM (inactive)
